Data: article PMC7772935, “Plant-Derived Compounds as a Tool for the Control of Gastrointestinal Nematodes: Modulation of Abamectin Pharmacological Action by Carvone” (Frontiers in Veterinary Science, 2020)
Marks after values point to notes of the source that are not given here.

Tests used:
bovine ileal explants [1] = system: bovine ileal explants
Excerpt: (§1) Data are expressed as mean ± standard deviation (SD). […] Differences were considered statistically significant at p < 0.05.

bovine ileal explants [2] = assay: ABM accumulation in bovine ileal explants, modulation by R-CNE or IVM; format: in vitro ADME, cattle; conditions: 0.05 μM ABM; for Effect on ABM accumulation in intestinal explants: 3.33 mM R-CNE or 0.5 μM IVM, 15-60 min
Excerpt: Cattle ileum samples were obtained from a local slaughterhouse ([…], Argentina) located 16 km away from the laboratory facilities.

[3] = Undesirable effects after oral administration in the in vivo assay; conditions: lambs, R-CNE 100 mg/kg, four oral doses every 24 h
Excerpt: (§2) All the animals had free access to water. Lambs were assigned to three experimental groups.

[4] = system: Haemonchus contortus egg hatch; design: method as in PMID 28807309; conditions: in vitro; cited from earlier work
[5] = R-CNE plasma concentrations after oral administration to lambs; format: in vivo; conditions: Corriedale and Texel crossbreed, sheep, 100 mg/kg oral, four doses every 24 h, after each dose
Procedure: as §2
R-CNE analysis was performed according the technique described by Tao and Pereira ([23]), with modifications. Aliquots of plasma (0.25 mL) were mixed with acetonitrile, agitated and centrifuged. Supernatants were injected into the HPLC system fitted with a Kromasil C18 column. The mobile phase was water/acetonitrile (40/60) at an isocratic flow of 1.3 mL/min. R-CNE was analyzed using a UV detector (Shimadzu, SPD-10A).
as §1

[6] = system: Haemonchus spp. eggs and larvae; design: method as in PMID 28807309; conditions: in vitro; cited from earlier work
[7] = system: resistant gastrointestinal nematodes; assay: Fecal egg count reduction test in naturally infected lambs; format: in vivo
Procedure: as §2
The fecal samples were analyzed to obtain the epg counts. The coprocultures were prepared with 10 g of feces from a pool of each experimental group obtained on days−1 and 14. The nematode genera and species were identified through the third-stage larvae recovered from the coprocultures ([24]). The fecal egg count reduction test (FECRT) was calculated using the Abbott's formula ([25]), with modifications: […]
where T1 and T2 are the arithmetic mean epg counts in the treated group on days 0 and 14, respectively, and C1 and C2 are the arithmetic mean epg counts in the control group on days 0 and 14, respectively. The 95% confidence intervals were calculated following Coles et al. ([26]).

P-gp transport = system: P-gp transport; design: method as in PMID 25865432; conditions: cited from earlier work
[8] = ABM plasma disposition after oral administration to lambs; conditions: ABM 0.2 mg/kg oral, alone or with R-CNE 4 x 100 mg/kg every 24 h, mean ± SD, n = 8
Excerpt: as §1

sheep intestine = system: sheep intestine; design: method as in PMID 24611483; conditions: Ussing chambers; cited from earlier work
P-gp = system: P-gp; design: method as in PMID 16384552; conditions: read-out: Concentration that inhibited the activated ATPase activity by 50%; cited from earlier work

Compound: C=C(C)C1CC=C(C)C(=O)C1 (centres unmarked) [R-CNE, 5-isopropenyl-2-methyl-2-cyclohexenone]
- Effect on Rho123 concentrations in the intestinal explants (bovine ileal explants [1]; 3.33 mM R-CNE, 15, 30, 45, 60 min): significantly increased Rho123 concentrations in the intestinal explants at all incubation times
- Rho123 concentration in intestinal explants, % higher than Rho123 incubated alone (bovine ileal explants [1]; 60 min of incubation, 3.33 mM R-CNE, 0.5 μM Rho123): 67 ± 21%
- Effect on ABM accumulation in intestinal explants (bovine ileal explants [2]): increased the intestinal concentration of the synthetic anthelmintic ABM at 15 and 30 min of incubation
- Intestinal concentration of ABM, % higher than control (ABM alone) (bovine ileal explants [2]; 30 min of incubation, 3.33 mM R-CNE): 28.1 ± 35.7%
- Undesirable effects after oral administration [3]: no undesirable effects were observed
- 50% lethal concentration [4]: 85 µg/mL
- Cmax [5]: 1790 ± 598 ng/mL
- Concentrations necessary to obtain an efficacy >90% [6]: 370 µg/mL

Compound: abamectin [ABM]
- Mean epg counts Day 14 ([7]; 14 days after oral administration, mean ± SD): 45 ± 121 epg
- Classification of drug efficacy according to Coles et al. ([7]; FECRT criteria): suspected of resistance
- Mean epg counts Day 0 ([7]; before treatment, mean ± SD): 2,193 ± 858 epg
- FECR (LCL-UCL) ([7]; day 14, 95% confidence limits): 94.9 (65.0-99.0) %
- Proportion of Haemonchus spp. in coprocultures after treatment ([7]; day 14, third-stage larvae): 88%
- Proportion of Teladorsagia spp. in coprocultures after treatment ([7]; day 14, third-stage larvae): 12%
- Concentrations necessary to inhibit P-gp transport, fold lower than to inhibit MRPs-mediated transport (P-gp transport): 3 fold
- AUC0−168h of ABM [8]: 815.67 ± 303.1
- Cmax of ABM [8]: 16.20 ± 10.2^a μg/mL
- Tmax of ABM [8]: 10.75 ± 9.6^a h
- T½ el (elimination half-life) of ABM [8]: 28.04 ± 8.1^a h

Compound: COC(=O)c1ccccc1-c1c2ccc(=N)cc-2oc2cc(N)ccc12 [Rho123, Rhodamine 123]
- Accumulation rate of Rho123 (bovine ileal explants [1]; male, Aberdeen Angus/Hereford crossbreed, cattle, 0.5 µM): 0.69 ± 0.19 ρg Rho/min/mg tissue

Compound: CC[C@H](C)[C@H]1O[C@]2(CC[C@@H]1C)C[C@@H]1C[C@@H](C/C=C(\C)[C@@H](O[C@H]3C[C@H](OC)[C@@H](O[C@H]4C[C@H](OC)[C@@H](O)[C@H](C)O4)[C@H](C)O3)[C@@H](C)/C=C/C=C3\CO[C@@H]4[C@H](O)C(C)=C[C@@H](C(=O)O1)[C@]34O)O2 [IVM, ivermectin]
- Increase of Rho123 absorption in the presence of the inhibitor (sheep intestine): 69%
- Effect on ABM accumulation in intestinal explants (bovine ileal explants [2]): significantly increased the accumulation of ABM in the intestinal explants at all incubation times
- IC50 (P-gp): 2500 nM
